Three compounds from patent publication US12673063B2, “Methods and materials for treatment of fibrosis” (Massachusetts Eye and Ear Infirmary, priority 2020, dated 2026) can be followed below.

Structures are written as SMILES.

For series [1], the system named is A549 cells. Kind of series: CyQUANT Direct Cell Proliferation Assay, A549. The conditions noted are these: for percent live cells compared to vehicle treated: 48 hours, Ro5-3335 150 μM, Ro24-7429 50 μM-200 μM, Pirfenidone 500 μg/ml, Nintedanib 5 μM; for anti-proliferative effect: 150 μM. The class given is cell-based, human. Here is the method: Human type II alveolar epithelial cells (A549) were a generous gift from Dr. Lagares (Mass General Hospital). Cells were maintained in low glucose-DMEM containing 10% FBS, 2 mM L-glutamine, 100 U/ml penicillin and 100 μg/ml streptomycin at 37° C. in a humidified 5% C02 atmosphere. Confluent cultures of cells were pretreated with Ro24-7429 for 24 hours followed by stimulation with 5 ng/ml of TGF-β1.
(§1) We tested the effect of RUNX1 inhibition on the proliferation of a human alveolar basal epithelial cell line (A549), primary human-derived pulmonary alveolar epithelial cells (HPAEpi), and in human-derived primary culture lung fibroblasts (HLF). For specific analyses we used escalating doses of Ro24-7429 (50-200 μM), Ro5-3335 (150 μM), pirfenidone (500 μg/ml) and nintedanib (5 μM), the latter two are currently approved drugs for IPF.

Series [2] deals with human lung fibroblasts (HLF). The series is described as follows: CyQUANT Direct Cell Proliferation Assay, HLF. The class given is cell-based. The conditions noted are these: 72 hours, 150 μM.
Excerpt: as §1, with “We conducted mechanistic studies in cell culture to examine the cellular and molecular mechanisms underlying the robust effects of RUNX1 inhibition in the protection against bleomycin-induced lung injury. We” for “We”

Series [3] deals with A549 cells. The series is described as follows: Lactate dehydrogenase (LDH) cell death assay, A549. The class given is cell-based. As to conditions: for cell death: 500μ g/ml. The protocol: Human type II alveolar epithelial cells (A549) were a generous gift from Dr. Lagares (Mass General Hospital). Cells were maintained in low glucose-DMEM containing 10% FBS, 2 mM L-glutamine, 100 U/ml penicillin and 100 μg/ml streptomycin at 37° C. in a humidified 5% C02 atmosphere.
We tested the effect of RUNX1 inhibition on the proliferation of a human alveolar basal epithelial cell line (A549), primary human-derived pulmonary alveolar epithelial cells (HPAEpi), and in human-derived primary culture lung fibroblasts (HLF).

Series [4] deals with human lung fibroblasts (HLF). The series is described as follows: Lactate dehydrogenase (LDH) cell death assay, HLF. The conditions noted are these: Ro24-7429 50-200 μM, Ro5-3335 150 μM. The class given is cell-based.
Excerpt: as §1, with “We conducted mechanistic studies in cell culture to examine the cellular and molecular mechanisms underlying the robust effects of RUNX1 inhibition in the protection against bleomycin-induced lung injury. We” for “We”

As for `O=C1CN=C(c2ccc[nH]2)c2cc(Cl)ccc2N1` [Ro5-3335, [7-chloro-5-(2-pyrryl)-3H-1,4 benzodiazapin-2-(H)-one]], the “percent live cells compared to vehicle treated” value (“percent live cells” below) in the series on A549 cells [1] is on record as “significant reduction”. The anti-proliferative effect in the series on A549 cells [1] (A549, 48 hours) was determined as 32%; in the series with A549 cells [1] (A549, 72 hours) it was 50%. This compound also showed a reduction in proliferation in series [2] of 40%. Moreover, the “cell death by LDH analysis” value is reported as “Very low levels of cell death” with A549 cells [3] (A549, Ro24-7429 50-200 μM, Ro5-3335 150 μM) and “Very low levels of cell death” in series [4].

`COC(=O)c1ccc2c(c1)NC(=O)/C2=C(\Nc1ccc(N(C)C(=O)CN2CCN(C)CC2)cc1)c1ccccc1` [nintedanib]: the “percent live cells” value in the series on A549 cells [1] is given as “significant reduction”.

`Cc1ccc(=O)n(-c2ccccc2)c1` [pirfenidone]: in the series on A549 cells [1], the “percent live cells” value was “significant reduction”. Also, the cell death with A549 cells [3] (A549, 48 hours) amounted to 8%; with A549 cells [3] (A549, 72 hours), 11%.
